According to US7932228B2, “Method of treating bone or prostate cancer with selective bradykinin B1 receptor antagonists” (Societe de Commercialisation des Produits de la Recherche …, priority 2004, dated 2011):

Tests used:
[1] = tested on: MAT-LyLu-B2 prostate cancer cells; experiment: orthoptic prostate cancer rat model (tumor progression); format: in vivo; settings: male Copenhagen rats, 3 mg/kg s.c. daily from day 1, 21 days after surgery, n=5-6, p<0.05; saline 1856±443 mg
Protocol: The potential of a BKB1-R antagonist to inhibit tumor progression in an orthoptic prostate cancer rat model was evaluated. Under anesthesia, male Copenhagen rats were injected in the anterior prostatic lobe with 100 000 MAT-LyLu-B2 prostate cancer cells. One day after the surgery, the animals received a daily injection of either saline or Compound A (3 mg/kg s.c.). At 21 days after the surgery, the animals were sacrificed and the prostate tumor was excised and weighted. Average weight of the prostate and tumor was 1856±443 mg for saline-treated rats and 504±135 mg with Compound A-treated animals (n=5-6 p<0.05). Two other cancerous cell-types (R 3327-G, MAT-Lu) were implanted in rats and similar results were obtained at inhibiting tumor progression dose-dependently over periods of time. A BKB1-Ra was also reported effective at stopping and reversing the progression of established tumor, considering efficacy, reversibility and relapse of treatment. These elements were maintained upon dual and triple combinations with other anti-cancer, anti-angiogenic, anti-proliferative agents such as taxane and platinum related compounds.

PC-3 cells = settings: in vitro, cited from earlier work

## Ac-Orn[Oic^2,(α-Me)Phe^5,D-βNal^7,Ile^8]desArg^9BK [Compound A]
[1]
  Average weight of the prostate and tumor: 504 ± 135 mg

## Arg Pro Pro Gly Phe Ser Pro Phe (RPPGFSPF; desArg9 BK) [desArg^9-BK]
PC-3 cells; BKB1-R agonist alone
  cell growth and proliferation of PC-3 cells: stimulated

## [Leu^8]desArg^9-BK
PC-3 cells; growth stimulated by desArg^9-BK
  effect on desArg^9-BK-stimulated growth of PC-3 cells: blocked
